Our source for the IC50 values is patent publication US10508085B2, “Compounds and methods for IDO and TDO modulation, and indications therefor” (Plexxikon Inc., priority 2016, dated 2019).

In assay [1] the target is T1, Human Indoleamine 2,3-dioxygenase (IDO) (Homo sapiens, UniProt P14902).
T1 construct: His tag (N); made in house; host or cells: E. coli
Kind of assay: Human IDO enzymatic assay (kynurenine level). Format: biochemical. The conditions noted are these: 6 nM IDO, 10 μM L-Trp; geometric mean; read-out: IDO1 GMean: IC50 (μM) (Biochemical Assay). The essentials:
(§1)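 IDO conditions: 6 nM His-IDO, 10 μM L-Trp, 5 μM methylene blue, 20 min, RT. TDO conditions: 1 nM His-TDO, 350 μM L-Trp, 0.4 μM methylene blue, 70 min, RT. Both used pH 6.5 phosphate plus ascorbate/catalase, TCA stop at 50° C, kynurenine readout, nonlinear-regression IC50.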

Assay [2] deals with T2, Human Tryptophan 2,3-dioxygenase (TDO) (Homo sapiens, UniProt P48775).
T2 construct: His tag (N); made in house; host or cells: E. coli
Kind of assay: Human TDO enzymatic assay (kynurenine level). In kind it is biochemical. The conditions noted are these: 1 nM TDO, 350 μM L-Trp; geometric mean; read-out: TDO GMean: IC50 (μM) (Biochemical Assay). A digest of the protocol:
as §1

Assay [3] deals with T3, human IDO (IDO1-expressing HEK293 cells) (Homo sapiens, UniProt P14902).
T3 construct: expressed in transfected cells
Description: Cell based kynurenine assay, IDO1-expressing HEK293 cell clones. The conditions noted are these: IDO1-expressing HEK293 cells, geometric mean, read-out: HEK293 IDO1 Kynurenine GMean IC50 (μM) (Cellular Assay). The essentials: (§2)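 Kynurenine in culture supernatant read after 24 h compound exposure of HEK293 cells stably expressing human IDO1 or TDO. IC50 from nonlinear regression of % inhibition relative to 0.2% DMSO cell (high) and media-only (low) controls.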

For assay [4], the target named is T4, human TDO (TDO-expressing HEK293 cells) (Homo sapiens, UniProt P48775).
T4 construct: expressed in transfected cells
Description: Cell based kynurenine assay, TDO-expressing HEK293 cell clones. The conditions noted are these: TDO-expressing HEK293 cells, geometric mean, read-out: HEK293 TDO Kynurenine GMean IC50 (μM) (Cellular Assay). The essentials:
as §2

Where two headings read alike, the source gives them in different places. Bounds are passed on as bounds.

T3 sequence (P14902 whole entry): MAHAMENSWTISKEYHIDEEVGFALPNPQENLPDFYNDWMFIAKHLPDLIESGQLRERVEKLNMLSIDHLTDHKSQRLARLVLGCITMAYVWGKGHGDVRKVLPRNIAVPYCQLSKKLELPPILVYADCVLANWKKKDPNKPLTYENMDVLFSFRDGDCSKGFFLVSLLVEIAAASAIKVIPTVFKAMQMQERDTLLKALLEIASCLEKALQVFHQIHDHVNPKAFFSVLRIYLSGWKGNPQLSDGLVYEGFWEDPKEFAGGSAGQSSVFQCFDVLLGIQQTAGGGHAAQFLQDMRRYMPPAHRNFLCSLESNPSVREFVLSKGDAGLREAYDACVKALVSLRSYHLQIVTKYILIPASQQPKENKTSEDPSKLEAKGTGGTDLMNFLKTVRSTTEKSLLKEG
T1 sequence (P14902 whole entry): as above
T4 sequence (P48775 whole entry): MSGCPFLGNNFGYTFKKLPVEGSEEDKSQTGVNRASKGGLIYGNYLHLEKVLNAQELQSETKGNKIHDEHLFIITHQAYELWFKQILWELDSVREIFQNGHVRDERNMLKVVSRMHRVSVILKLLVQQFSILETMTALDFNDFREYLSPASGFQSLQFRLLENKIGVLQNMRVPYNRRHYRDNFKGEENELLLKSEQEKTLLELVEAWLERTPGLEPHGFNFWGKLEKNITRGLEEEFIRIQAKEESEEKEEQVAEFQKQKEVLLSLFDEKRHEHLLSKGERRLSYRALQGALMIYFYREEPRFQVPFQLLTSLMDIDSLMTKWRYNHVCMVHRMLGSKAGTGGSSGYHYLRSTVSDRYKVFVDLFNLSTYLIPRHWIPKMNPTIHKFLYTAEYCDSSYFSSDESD
T2 sequence (P48775 whole entry): as above

On to `O=S(=O)(NC1CC(O)(c2cc(Cl)cc3cn[nH]c23)C1)c1ccccc1` (stereo not drawn) [Compound P-0044, N-(3-(5-chloro-1H-indazol-7-yl)-3-hydroxycyclobutyl)benzenesulfonamide], for which the IC50 (as a rule, the concentration at which inhibition is half-maximal) was 100 to 200 µM in assay [1], 10 to 100 µM in assay [2], over 10 µM in assay [3] (24 hours incubation) and over 10 µM in assay [4] (24 hours incubation).
On to `CCOC(=O)NC(=O)N1CCC(C(C)(C)[C@H](O)c2c(F)c(Cl)cc3cn[nH]c23)CC1` [Compound P-0513, ethyl (S)-(4-(1-(5-chloro-6-fluoro-1H-indazol-7-yl)-1-hydroxy-2-methylpropan-2-yl)piperidine-1-carbonyl)carbamate], for which the IC50 in assay [1], in assay [2], in assay [3] (24 hours) and in assay [4] (24 hours) was 0.0001 to 10 µM in each case.
Consider `O=C(NC1CCOCC1)N1CCC(C(F)(F)C(O)c2cc(Cl)cc3cn[nH]c23)CC1` (stereo not drawn) [Compound P-0462, 4-(2-(5-chloro-1H-indazol-7-yl)-1,1-difluoro-2-hydroxyethyl)-N-(tetrahydro-2H-pyran-4-yl)piperidine-1-carboxamide], for which the IC50 in assay [1], in assay [2], in assay [3] (24 hours) and in assay [4] (24 hours) was 0.0001 to 10 µM throughout.
Take `CC(C)(C1CCN(C(=O)CN2CCOCC2)CC1)C(O)c1cc(Cl)cc2cn[nH]c12` (stereo not drawn) [Compound P-0441, 1-(4-(1-(5-chloro-1H-indazol-7-yl)-1-hydroxy-2-methylpropan-2-yl)piperidin-1-yl)-2-morpholinoethan-1-one]: the IC50 in assay [1], in assay [2], in assay [3] (24 hours) and in assay [4] (24 hours) was 0.0001 to 10 µM throughout.
Take `OC1(c2cc(Cl)cc3cn[nH]c23)CC2(CCCC2)C1` [Compound P-0048, 2-(5-chloro-1H-indazol-7-yl)spiro[3.4]octan-2-ol]: the IC50 in assay [1], in assay [2], in assay [3] (24 hours incubation) and in assay [4] (24 hours incubation) was 0.0001 to 10 µM each time.
As to `CC(C)(O)CNC(=O)N1CCC(C(F)(F)C(O)c2cc(Cl)cc3cn[nH]c23)CC1` (stereo not drawn) [Compound P-0466, 4-(2-(5-chloro-1H-indazol-7-yl)-1,1-difluoro-2-hydroxyethyl)-N-(2-hydroxy-2-methylpropyl) piperidine-1-carboxamide], the IC50 in assay [1], in assay [2], in assay [3] (24 hours) and in assay [4] (24 hours) was 0.0001 to 10 µM in each case.
`Nc1nc(C(=O)N2CCC(C3(C(O)c4cc(Cl)cc5cn[nH]c45)CC3)CC2)cs1` (stereo not drawn) [Compound P-0166, (2-aminothiazol-4-yl)(4-(1-((5-chloro-1H-indazol-7-yl)(hydroxy)methyl)cyclopropyl)piperidin-1-yl)methanone]: the 50% inhibitory concentration (IC50) in assay [1], in assay [2], in assay [3] (24 hours incubation) and in assay [4] (24 hours incubation) was 0.0001 to 10 µM throughout.
For `OC(c1cc(Cl)cc2cn[nH]c12)C1(C2CC2)CC1` (stereo not drawn) [Compound P-0225, [1,1′-bi(cyclopropan)]-1-yl(5-chloro-1H-indazol-7-yl)methanol], the IC50 in assay [1], in assay [2], in assay [3] (24 hours incubation) and in assay [4] (24 hours incubation) was 0.0001 to 10 µM in each case.
Regarding `CCS(=O)(=O)N1CCC(C(F)(F)C(O)c2cc(Cl)cc3cn[nH]c23)CC1` (stereo not drawn) [Compound P-0276, 1-(5-chloro-1H-indazol-7-yl)-2-(1-(ethylsulfonyl)piperidin-4-yl)-2,2-difluoroethan-1-ol], the IC50 in assay [1], in assay [2], in assay [3] (24 hours incubation) and in assay [4] (24 hours incubation) was 0.0001 to 10 µM each time.
Regarding `CC(=O)N1CCC(C(C)(C)[C@@H](O)c2cc(Cl)cc3cn[nH]c23)CC1` [Compound P-0422, (R)-1-(4-(1-(5-chloro-1H-indazol-7-yl)-1-hydroxy-2-methylpropan-2-yl)piperidin-1-yl)ethan-1-one], the IC50 in assay [1], in assay [2], in assay [3] (24 hours) and in assay [4] (24 hours) was 0.0001 to 10 µM throughout.
For `CC1(C(O)c2cc(Cl)cc3cncn23)CCCCC1` (stereo not drawn) [Compound P-0083, (7-Chloroimidazo[1,5-a]pyridin-5-yl)(1-methylcyclohexyl)methanol], the IC50 in assay [1], in assay [2], in assay [3] (24 hours incubation) and in assay [4] (24 hours incubation) was 0.0001 to 10 µM in each case.
Regarding `CC1(C(O)c2cc(Cl)cc3cn[nH]c23)CCCCC1` (stereo not drawn) [Compound P-0006, (5-chloro-1H-indazol-7-yl)(1-methylcyclohexyl)methanol], the IC50 in assay [1], in assay [2], in assay [3] (24 hours incubation) and in assay [4] (24 hours incubation) was 0.0001 to 10 µM throughout.
Consider `CC(C)(C1CCN(C(=O)Nc2cccc(C(F)(F)F)c2)CC1)C(O)c1cc(Cl)cc2cn[nH]c12` (stereo not drawn) [Compound P-0400, 4-(1-(5-chloro-1H-indazol-7-yl)-1-hydroxy-2-methylpropan-2-yl)-N-(3-(trifluoromethyl)phenyl)piperidine-1-carboxamide], for which the IC50 in assay [1], in assay [2], in assay [3] (24 hours incubation) and in assay [4] (24 hours incubation) was 0.0001 to 10 µM throughout.
Consider `CC(F)(F)C1(C(C)(F)F)CC(O)(c2cc(Cl)cc3cn[nH]c23)C1` [Compound P-0222, 1-(5-chloro-1H-indazol-7-yl)-3,3-bis(1,1-difluoroethyl)cyclobutan-1-ol], for which the IC50 in assay [1], in assay [2], in assay [3] (24 hours incubation) and in assay [4] (24 hours incubation) was 0.0001 to 10 µM throughout.
In the case of `OC(CC1CCOCC1)c1cc(Cl)cc2cn[nH]c12` (stereo not drawn) [Compound P-0210, 1-(5-chloro-1H-indazol-7-yl)-2-(tetrahydro-2H-pyran-4-yl)ethan-1-ol], the IC50 in assay [1], in assay [2], in assay [3] (24 hours incubation) and in assay [4] (24 hours incubation) was 0.0001 to 10 µM throughout.
Turning to `COc1ccc(CC(=O)N2CCC(C(F)(F)C(O)c3cc(Cl)cc4cn[nH]c34)CC2)cn1` (stereo not drawn) [Compound P-0521, 1-(4-(2-(5-chloro-1H-indazol-7-yl)-1,1-difluoro-2-hydroxyethyl)piperidin-1-yl)-2-(6-methoxypyridin-3-yl)ethan-1-one], the IC50 in assay [1], in assay [2], in assay [3] (24 hours) and in assay [4] (24 hours) was 0.0001 to 10 µM throughout.
For the compound `COc1cccc(NC(=O)N2CCC(C(C)(C)C(O)c3cc(Cl)cc4cn[nH]c34)CC2)c1` (stereo not drawn) [Compound P-0182, 4-(1-(5-chloro-1H-indazol-7-yl)-1-hydroxy-2-methylpropan-2-yl)-N-(3-methoxyphenyl)piperidine-1-carboxamide], the IC50 in assay [1], in assay [2], in assay [3] (24 hours incubation) and in assay [4] (24 hours incubation) was 0.0001 to 10 µM in each case.
As for `CC(C)(C1CCN(C(=O)CN2CCCS2(=O)=O)CC1)C(O)c1cc(Cl)cc2cn[nH]c12` (stereo not drawn) [Compound P-0486, 1-(4-(1-(5-chloro-1H-indazol-7-yl)-1-hydroxy-2-methylpropan-2-yl)piperidin-1-yl)-2-(1,1-dioxidoisothiazolidin-2-yl)ethan-1-one], the IC50 in assay [1], in assay [2], in assay [3] (24 hours) and in assay [4] (24 hours) was 0.0001 to 10 µM in each case.
